Experimental data reported in patent publication US20100331363A1, “TREATMENT OF MITOCHONDRIAL DISORDERS USING A FARNESYL TRANSFERASE INHIBITOR” (Link Medicine Corporation, priority 2008, published 2010).
“Also recorded” adds a separate entry of the source.

Experiments:
INS1 cells = test: Palmitate-induced cell death of INS1 cells, propidium iodide flow cytometry; type: cell-based; conditions: low dose; palmitate 18 hours, compound last 12 hours
Experimental: LNK-754 was tested using a cell death assay to determine whether it had any effect on palmitate-induced cell death. For Example, one example of such an assay is as follows: INS1 cells were incubated in control medium or in medium containing palmitate for 18 hours and either rapamycin or LNK-754 at 0.25 nM, 0.5 nM, 1 nM, 10 nM, and 100 nM were added for the last 12 hours. At the end of the incubation, the cells were washed with PBS and stained with 1 μg/ml propidium iodide (e.g., Molecular Probes, P3566). FACS data analysis was performed and cell debris was excluded. […] At low dose, LNK-754 behaves similar to rapamycin.

[1] = tested on: 3T3H-ras (61 L) xenograft tumor; Ras farnesylation; conditions: continuous infusion, 7 day treatment, cited from earlier work
TAU = test: TAU441 transgenic mice, TAU immunoreactivity (AT180, HT7) in amygdala; type: in vivo, mouse; conditions: 0.09 mg/kg once every 24 hours, three months, vs vehicle
Experimental: Animals and treatments: Male and female human WT alpha-synuclein over-expressing transgenic mice^32 at 6 months of age were given vehicle (10% beta-cyclodextrin) or LNK-754-TS (0.09, 0.9 and 9 mg/kg) per oral gavage twice daily for 3 months or animals at 7 months of age were given vehicle (2.5% beta-cyclodextrin) or LNK-754-TS (2 mg/kg) once every three days for 3 months. […]
Immunohistochemistry and quantification of stained cells: For evaluation of α-synuclein immunoreactivity (IR), 5 sagittal cryo-cut sections (10 μm slice thickness) from five different layers were used for counting of IR cells in the cortex and hippocampus. […] IR positive cells were quantified using specialized image analysis software (Image Pro Plus, version 4.5.1.29). […] Images were evaluated with ImageProPlus (version 6.2) image analysis software. […] Primary antibodies were detected by the ABC method.
This study was designed to evaluate the effects of a treatment with LNK-754-TS dosed at 0.09 mg per kg on behavior, TAU and TAU-pT231 levels, and brain morphology of TAU441 Tg mice. Histological evaluations were performed to quantitatively evaluate TAU pathology. TAU depositions were determined using the monoclonal TAU-antibodies AT180 and HT7. […] Afterwards images were evaluated with ImageProPlus (version 6.2) image analysis software (FIG. 10A).

HDJ2 = test: Inhibition of HDJ2 farnesylation in SH-SY5Y cells; type: cell-based, human; conditions: continuous exposure over long periods
[2] = tested on: autophagy-related gene transcripts; test: mRNA of autophagy-related genes (Atg1, p62) in SH-SY5Y cells; type: cell-based, human; conditions: 100 nM
Experimental: Quantitative real-time PCR: Gene expression profiles were done by qPCR on series of known autophagy genes. RNA was extracted with Tri-reagent (Sigma), and cDNAs generated using iScript (Biorad). qPCR analysis was carried out in a 96 well plate using an iCycler (BioRad, Hercules, Calif.), and iQ SYBR Green Supermix (Biorad) according to the manufacturer's specifications.
Rapamycin is a well-characterized autophagy stimulator that acts through inhibition of mTOR, a kinase involved in nutrient signaling and regulation of cell growth and survival.

APP/PS1 transgenic mice = test: Morris water maze in APP/PS1 transgenic mice; type: in vivo, mouse; conditions: 0.9 mg/kg once every 24 hours, vs vehicle
Experimental: Animals and treatments: Male and female human WT alpha-synuclein over-expressing transgenic mice^32 at 6 months of age were given vehicle (10% beta-cyclodextrin) or LNK-754-TS (0.09, 0.9 and 9 mg/kg) per oral gavage twice daily for 3 months or animals at 7 months of age were given vehicle (2.5% beta-cyclodextrin) or LNK-754-TS (2 mg/kg) once every three days for 3 months. Male and female TAU transgenic mice expressing TAU441 bearing the missense mutations V337M^50 and R406W under the control of the murine Thy-1 promoter with a CB6xC57BL/6 background were 5 months old at the time when the oral treatment for three months with LNK-754-TS (0.9 and 0.09 mg/kg) as well as vehicle (2.5% beta-cyclodextrin) was started. Female human APP/PS1 (APP (London V7171)/PS1(A246E)) over-expressing transgenic mice were treated with LNK-754-TS (0.9 mg/kg) or vehicle (2.5% beta-cyclodextrin) for 2 months or 12 days.
Morris water maze (MWM) analysis of cognitive performance: In APP/PS1 transgenic animals, swimming behavior in a Morris Water Maze was videotaped and analyzed (Ethovision, Noldus, Wageningen, Netherlands). For mice, a place navigation test was used to locate the hidden platform in five blocks of three trials over three consecutive days. […] The time each mouse needed for location of the platform was measured. […] The time and path length each rat needed to locate the platform was measured. […]

SMILES	palmitate-induced cell death (INS1 cells)	inhibition of Ras farnesylation at which significant inhibition of tumor growth was seen ([1]; tumor tissue)	continuous serum level at which significant inhibition of tumor growth was seen [1]	phosphorylated Tau (AT180) immunoreactivity in amygdala (TAU)	total TAU (HT7) immunoreactivity (TAU)	IC50 (HDJ2) [nM]	transcript encoding p62 ([2]; SH-SY5Y (FIG. 8e))	mRNA levels of a set of autophagy-related genes (incl. Atg1) ([2]; SH-SY5Y (FIG. 8d))	cognitive performance, Morris water maze (APP/PS1 transgenic mice; 12 days)	performance in the Morris water maze (APP/PS1 transgenic mice; two months)
C#Cc1cccc(-c2cc(=O)n(C)c3ccc([C@](O)(c4ccc(Cl)cc4)c4cncn4C)cc23)c1 [LNK-754, (R)-6-[(4-chlorophenyl)-hydroxyl-(1-methyl-1-H-imidazol-5-yl)-methyl]-4-(3-ethynylphenyl)-1-methyl-2-(1H)-quinonlinone]	protects INS1 cells from palmitate toxicity	at least 50%	above 100 ng/mL	–	–	–	–	–	–	–
C#Cc1cccc(-c2cc(=O)n(C)c3ccc([C@](O)(c4ccc(Cl)cc4)c4cncn4C)cc23)c1 [LNK-754-TS, (R)-6-[(4-chlorophenyl)-hydroxyl-(1-methyl-1-H-imidazol-5-yl)-methyl]-4-(3-ethynylphenyl)-1-methyl-2-(1H)-quinonlinone (2S, 3S)-dihydroxybutanedioate]	–	–	–	significantly decreased; also recorded: significant reduction; also recorded: significantly reduced	not significantly reduced; also recorded: did not change	10	induced upregulation; also recorded: increased	unaffected	significant cognitive improvement	performed significantly better; also recorded: significant cognitive improvement
